Reference: patent publication US20240238459A1, “Granzyme-Activatable Membrane-Interacting Peptides and Methods of Use” (priority 2021, published 2024)
Peptide text beside a SMILES is read from it. * marks the point of attachment. DOTA = O=C(O)CN1CCN(CC(=O)O)CCN(CC(=O)*)CCN(CC(=O)O)CC1; Ahx = NCCCCCC(=O)O

What was measured:
E. coli = experiment: PET/CT and biodistribution in E. coli myositis in germline GZMB knockout mice; type: in vivo, mouse
Description: To confirm the radiotracer uptake in the abscess was due to granzyme B, imaging studies were performed in germline GZMB knockout mice. The mice received live and heat killed E. Coli and were injected and imaged following the same protocol for wild type mice.

L. monoctyogenes = experiment: PET in L. monoctyogenes myositis model; type: in vivo, mouse
Excerpt: Neither M. marinum nor the L. monoctyogenes induced ^64Cu-GRIP B uptake in live bacterial abscesses compared to heat killed controls.

secreted GZMB = biological target: T1, secreted GZMB (Mus musculus, UniProt P04187); experiment: PET/CT and biodistribution after intratracheal LPS instillation; type: in vivo
T1 construct: from tissue; host or cells: live wild type mice; lungs and other organs after intratracheal LPS
T1 sequence (P04187 21-247): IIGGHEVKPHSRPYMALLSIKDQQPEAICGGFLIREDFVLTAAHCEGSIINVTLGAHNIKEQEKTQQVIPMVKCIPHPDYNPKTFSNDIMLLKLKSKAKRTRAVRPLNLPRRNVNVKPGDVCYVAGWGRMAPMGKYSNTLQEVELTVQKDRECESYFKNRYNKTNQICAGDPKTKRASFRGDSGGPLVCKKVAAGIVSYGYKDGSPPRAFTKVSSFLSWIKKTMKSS
Description: Though not well defined, non-cytotoxic functions for secreted GZMB have been proposed in several physiological processes, for example inflammation. To test if ^64Cu-GRIP B can localize potentially pathogenic reservoirs of secreted GZMB due to inflammation, ^64Cu-GRIP B PET/CT was performed on wild type mice that had received intratracheal instillations of lipopolysaccharide (LPS). PET/CT was performed four days after the instillation, a time point at which T cell recruitment to the lungs has occurred. […] Since 3 mg/kg LPS can trigger systemwide T cell activation, radiotracer uptake was examined in a larger panel of mouse organs. […] Remarkably, the systemwide impact on T cell activation due to the intratracheal instillation of LPS was also visually obvious by comparing maximum intensity projections between treatment arms (FIG. 6, panel E).

MC38 = experiment: Biodistribution and PET/CT in mice bearing MC38 tumors treated with vehicle or CPI; type: in vivo, mouse; conditions: MC38 cohort, biodistribution
Description: (§1) Next, the biodistribution of ^64Cu-GRIP B and ^64Cu-D-GRIP B was compared in mice bearing MC38 (mouse colorectal cancer) or EMT6 (mouse mammary breast carcinoma) xenografts. The mice were treated with vehicle or anti-PD1 and anti-CTLA4 CPIs following the schema used for the CT26 cohort.

[1] = PET/CT, biodistribution and autoradiography in mice bearing CT26 tumors treated with vehicle or CPI; conditions: both, mouse, in vivo, iv, total radioactivity
Description: (§2) The effect of immunomodulatory therapies on ^64Cu-GRIP B biodistribution was next evaluated in mice bearing subcutaneous CT26 tumors, a mouse colorectal cancer cell line that responds to immunomodulatory therapy. Mice were treated with three intraperitoneal infusions of vehicle or anti-PD1 plus anti-CTLA4 CPIs over 11 days. The radiotracer was injected on day 14, and tumor uptake was monitored over several time points out to 24 hours post injection on PET.
(§3) A biodistribution study at 2 hours post injection was performed to determine relative changes in tracer uptake between tissues in the vehicle and treated groups.
(§4) All animal experiments were approved by the Institutional Animal Care and Use Committee at UCSF. Four to six week old male or female balb/c mice and C57BL6/J mice were purchased from Jackson Laboratory and housed with free access to the water and food. All mice were inoculated with 5×10^6 CT26, MC38, or EMT6 cells in a mixture of media and Matrigel (Corning) (v/v 1:1) subcutaneously into the left shoulder. Anti-mouse PD-1 (CD279) (BE0146) and anti-mouse CTLA-4 (CD152) (BE0164) were purchased from Bio X Cell and stored at 4° C. during the treatment studies. Mice bearing subcutaneous tumors were received anti-mouse CTLA-4 (200 ug) or/and anti-mouse PD-1 (200 ug) and as a combination therapy or PBS as the vehicle on days 5, 8, 11 following the tumor inoculation. Mice were weighed and the tumor volume were measured with calipers on the same day of the treatment. On day 14, all mice were used for PET/CT or BioD studies.
(§5) ^64Cu-L-GRIP B or ^64Cu-D-GRIP B (˜100 μCi/mouse) in 100-150 μL of 10% DMSO and 10% Tween 80 in saline was injected via tail vein. After a period of uptake time, mice were anesthetized with isoflurane (˜2%), and imaged with a microPET/CT scanner (Inveon, Siemens). For static imaging, mice were scanned for 30 min for PET data acquisition and 10 min for CT data acquisition. For the dynamic acquisitions, the mice were anesthetized, positioned on the scanner bed, and injected intravenously with radiotracer. The dynamic acquisition was performed for scanned for 60 min followed by a 10 min CT acquisition.
(§6) At dedicated time points post radiotracer injection, mice were euthanized with CO2(g) asphyxiation, and the blood was collected by direct cardiac puncture. Tissues were harvested, weighed and counted on a gamma counter (Hidex). The amount of radioactivity in the tissues was determined by comparison with a standard of known activity. The samples were decay-corrected and expressed as the percentage of the injected dose/weight of the harvested tissues (% ID/g).
(§7) Tumors or designated tissue were flash frozen in OCT in dry ice. The tissues were sectioned with a microtome (Leica) into slices with 10-20 um thickness and directly mounted on glass slides (VWR). GE Storage Phosphor Screen were exposed by such slides with radioactive tissue. After 10 half-live of copper-64, the screen was developed on a phosphorimager (Typhoon 9400). The images were further analyzed by using Fiji software.

subcutaneous CT26 tumors = experiment: as above
Description: as §2, §3, §4, §5, §6, §7

EMT6 = experiment: Biodistribution in mice bearing EMT6 tumors treated with vehicle or CPI; type: in vivo, mouse; conditions: EMT6 cohort
Description: as §1

K. pneumoniae = experiment: PET in K. pneumoniae myositis model; type: in vivo, mouse
Excerpt: Performing additional myositis studies with other bacterial strains yielded unexpected and variable granzyme “responses” on PET. […] In both mouse cohorts, radiotracer uptake in the treated muscles was higher than in the normal muscle.

recombinant human GZMB = recombinant human GZMB (Homo sapiens, UniProt P10144); experiment: Cleavage of GRIP B / ^64Cu-GRIP B by recombinant human GZMB (rad-HPLC); type: biochemical; conditions: incubation with recombinant human GZMB (400 nM per FIG. 2D legend); product comigrated with cold cleaved DOTA-peptide fragment
[2] = biodistribution at 2 hours post injection

Sequence of recombinant human GZMB (P10144 21-247): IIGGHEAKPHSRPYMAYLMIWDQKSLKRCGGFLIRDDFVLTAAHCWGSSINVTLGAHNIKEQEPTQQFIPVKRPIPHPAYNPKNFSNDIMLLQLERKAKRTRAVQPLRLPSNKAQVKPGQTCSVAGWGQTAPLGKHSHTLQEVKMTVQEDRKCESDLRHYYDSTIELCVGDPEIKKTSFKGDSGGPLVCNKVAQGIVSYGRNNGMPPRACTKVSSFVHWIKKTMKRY

CC[C@H](C)[C@H](NC(=O)[C@H](CCCCN)NC(=O)CNC(=O)[C@H](CC(C)C)NC(=O)[C@H](Cc1ccccc1)NC(=O)[C@H](CCCCN)NC(=O)[C@H](CO)NC(=O)[C@H](Cc1ccccc1)NC(=O)[C@H](Cc1c[nH]c2ccccc12)NC(=O)[C@H](CCC(N)=O)NC(=O)[C@@H](NC(=O)[C@H](Cc1ccccc1)NC(=O)CCCCCNC(=O)CN1CCN(CC(=O)O)CCN(CC(=O)O)CCN(CC(=O)O)CC1)C(C)C)C(=O)N[C@@H](CCC(=O)O)C(=O)N1CCC[C@H]1C(=O)N[C@@H](CC(=O)O)C(=O)N[C@H](C(=O)N[C@@H](CO)C(=O)N[C@@H](CCC(N)=O)C(=O)N[C@H](C(=O)N[C@@H](CCC(N)=O)C(=O)N[C@@H](CC(=O)O)C(=O)N1CCC[C@H]1C(=O)N[C@@H](CC(N)=O)C(=O)N[C@@H](CC(=O)O)C(=O)N[C@@H](CCC(N)=O)C(=O)N[C@@H](Cc1ccc(O)cc1)C(=O)N[C@@H](CCC(=O)O)C(=O)N1CCC[C@H]1C(=O)N[C@@H](Cc1ccccc1)C(=O)O)C(C)C)C(C)C [^64Cu-GRIP B, metal not drawn] ({DOTA-Ahx}-FVQWFSKFLGKIEPDVSQVQDPNDQYEPF-OH)
uptake in infected muscle, GZMB knockout compared to wild type (E. coli; PET/CT and biodistribution): lower | difference in tracer uptake between normal muscle, live and heat killed E. Coli treated muscle (E. coli; knockout strain): negligible difference | radiotracer uptake compared to normal muscle (L. monoctyogenes): significant increase | uptake in live bacterial abscesses compared to heat killed controls (L. monoctyogenes): did not impact | autoradiography of the lungs, LPS treated (secreted GZMB; co-localized with GZMB and CD3 staining): visually higher radiotracer binding | ex vivo biodistribution, LPS treated versus vehicle mice (secreted GZMB; either dose, including spleen and thymus): significantly higher in numerous tissues | radiotracer accumulation in the lungs, LPS compared to vehicle (secreted GZMB; low (0.1 mg/kg) and high (3 mg/kg) doses of LPS, four days after instillation, ROI analysis): significantly higher | tumoral uptake after CPI compared to controls (MC38): significant increase | tissue uptake per volume at 10 min [1]: ~5 %ID/mL | time course of uptake in treated tumors (subcutaneous CT26 tumors; CPI (anti-PD1 plus anti-CTLA4) treated, static PET/CT ROI analysis): steadily rose from 0.5 to 2-4 hours post injection | persistence of radioactivity in tumors (subcutaneous CT26 tumors; CPI treated, PET): persisted in tumors out to 24 hours post injection | digital autoradiography signal, treated versus control tumor (subcutaneous CT26 tumors; CT26 tumor slices, co-aligned with GZMB and CD3): significantly higher | tumoral uptake, CPI versus vehicle treated arm (subcutaneous CT26 tumors; PET, 2 hours post injection): significantly higher | induction of radiotracer uptake in tumors, treated compared to control mice (subcutaneous CT26 tumors; [2]): ~50% | tracer uptake within the spleen, treated versus vehicle (subcutaneous CT26 tumors; [2]): significant increase | radiotracer uptake in vehicle tumors by comparison with CPI treated (subcutaneous CT26 tumors; vehicle treated mice, dynamic PET): significantly lower and did not change over time | correlation of tumor to blood ratios with percent change in tumor volume (subcutaneous CT26 tumors; wild type mice, day 11): significantly correlated | correlation of tumoral uptake with percent change in tumor volume (subcutaneous CT26 tumors; wild type mice, day 11 compared to day 0): significantly correlated | tumoral uptake after CPI compared to controls (EMT6): significant increase | normal tissue biodistribution (biodistribution out to 24 hours post injection): highest level of tissue-associated activity in the kidney and liver | dominant mode of clearance (intravenous, C57B16/J mice, dynamic PET): renal | uptake in treated muscles versus normal muscle (K. pneumoniae): higher | uptake in live bacterial infection versus contralateral heat killed bacteria (K. pneumoniae; deltoid muscles): higher | time to conversion to one radiolabeled product (recombinant human GZMB): ≤ 30 min
